Assay results as given in PubChem BioAssay (NCI).
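Protocol summary: plate cells (96-well), add compound at 5 concentrations, incubate 48 h, interpolate endpoints linearly. Definition used: TGI = concentration required for complete inhibition of growth.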

How the values were obtained:
Test in all cases: NCI-60 cell line screen, 48 h
[1] = tested on: SNB-75 CNS
[2] = tested on: T-47D breast
[3] = tested on: KM12 colon
[4] = tested on: HT29 colon
[5] = tested on: NCI-H522 lung
[6] = tested on: SK-MEL-28 melanoma
[7] = tested on: EKVX NSCLC
[8] = tested on: MDA-N
[9] = tested on: SF-268 CNS
[10] = tested on: MOLT-4 leukemia
[11] = tested on: NCI-H23 lung
[12] = tested on: HS 578T breast
[13] = tested on: K-562 leukemia
[14] = tested on: PC-3 prostate
[15] = tested on: HCT-116 colon
[16] = tested on: OVCAR-3 ovarian
[17] = tested on: HCC-2998 colon
[18] = tested on: HOP-62 NSCLC
[19] = tested on: SK-MEL-5 melanoma
[20] = tested on: CAKI-1 renal
[21] = tested on: 786-0 renal
[22] = tested on: RXF 393 renal
[23] = tested on: SW-620 colon
[24] = tested on: SK-MEL-2 melanoma
[25] = tested on: U251 CNS
[26] = tested on: HOP-92 NSCLC
[27] = tested on: COLO 205 colon
[28] = tested on: DU-145 prostate
[29] = tested on: MCF7 breast
[30] = tested on: UACC-257 melanoma
[31] = tested on: SF-295 CNS
[32] = tested on: SNB-19 CNS
[33] = tested on: SN12C renal
[34] = tested on: MALME-3M melanoma
[35] = tested on: LOX IMVI melanoma
[36] = tested on: OVCAR-4 ovarian
[37] = tested on: SR leukemia
[38] = tested on: RPMI-8226 leukemia
[39] = tested on: OVCAR-8 ovarian
[40] = tested on: HL-60(TB) leukemia
[41] = tested on: IGROV1 ovarian
[42] = tested on: MDA-MB-231 breast
[43] = tested on: HCT-15 colon
[44] = tested on: M14 melanoma
[45] = tested on: SK-OV-3 ovarian
[46] = tested on: NCI-H460 lung
[47] = tested on: NCI-H226 lung
[48] = tested on: A498 renal
[49] = tested on: CCRF-CEM leukemia
[50] = tested on: OVCAR-5 ovarian
[51] = tested on: NCI/ADR-RES ovarian
[52] = tested on: UACC-62 melanoma
[53] = tested on: SF-539 CNS
[54] = tested on: MDA-MB-435
[55] = tested on: ACHN renal
[56] = tested on: A549 NSCLC
[57] = tested on: BT-549 breast
[58] = tested on: UO-31 renal
[59] = tested on: TK-10 renal

With NC(=O)C(=CNC(=S)Nc1ccccc1)C(N)=O the TGI [1] was > 100 µM, the TGI [2] was > 100 µM and the TGI [3] was > 100 µM. For the same molecule, the TGI [4] was > 100 µM, the TGI [5] was > 100 µM and the TGI [6] was > 100 µM. For the same molecule, the TGI [7] was > 100 µM, the TGI [8] was > 100 µM and the TGI [9] was > 100 µM. The TGI [10] was > 100 µM, the TGI [11] was > 100 µM and the TGI [12] was > 100 µM. The TGI [13] was > 100 µM, the TGI [14] was > 100 µM and the TGI [15] was > 100 µM. The TGI [16] was > 100 µM, the TGI [17] was > 100 µM and the TGI [18] was > 100 µM. The TGI [19] was > 100 µM, the TGI [20] was > 100 µM and the TGI [21] was > 100 µM. The TGI [22] was > 100 µM, the TGI [23] was > 100 µM and the TGI [24] was > 100 µM. The TGI [25] was > 100 µM, the TGI [26] was > 100 µM and the TGI [27] was > 100 µM. The TGI [28] was > 100 µM, the TGI [29] was > 100 µM and the TGI [30] was > 100 µM. For the same molecule, the TGI [31] was > 100 µM, the TGI [32] was > 100 µM and the TGI [33] was > 100 µM. For the same molecule, the TGI [34] was > 100 µM, the TGI [35] was > 100 µM and the TGI [36] was > 100 µM. For the same molecule, the TGI [37] was > 100 µM, the TGI [38] was > 100 µM and the TGI [39] was > 100 µM. The TGI [40] was > 100 µM, the TGI [41] was > 100 µM and the TGI [42] was > 100 µM. The TGI [43] was > 100 µM, the TGI [44] was > 100 µM and the TGI [45] was > 100 µM. The TGI [46] was > 100 µM, the TGI [47] was > 100 µM and the TGI [48] was > 100 µM. For the same molecule, the TGI [49] was > 100 µM, the TGI [50] was > 100 µM and the TGI [51] was > 100 µM. For the same molecule, the TGI [52] was > 100 µM, the TGI [53] was > 100 µM and the TGI [54] was > 100 µM. For the same molecule, the TGI [55] was > 100 µM and the TGI [56] was > 100 µM.
For NNC(=O)c1c(-c2cccnc2)cnc2ccccc12, the TGI [1] was > 100 µM, the TGI [3] was > 100 µM and the TGI [4] was > 100 µM. For the same molecule, the TGI [5] was > 100 µM, the TGI [6] was > 100 µM and the TGI [7] was > 100 µM. For the same molecule, the TGI [8] was > 100 µM, the TGI [9] was > 100 µM and the TGI [10] was > 100 µM. For the same molecule, the TGI [11] was > 100 µM, the TGI [13] was > 100 µM and the TGI [14] was > 100 µM. The TGI [15] was > 100 µM, the TGI [16] was > 100 µM and the TGI [17] was > 100 µM. For the same molecule, the TGI [18] was > 100 µM, the TGI [19] was > 100 µM and the TGI [20] was > 100 µM. For the same molecule, the TGI [21] was > 100 µM, the TGI [22] was > 100 µM and the TGI [23] was > 100 µM. The TGI [24] was > 100 µM, the TGI [25] was > 100 µM and the TGI [57] was > 100 µM. For the same molecule, the TGI [26] was > 100 µM, the TGI [27] was > 100 µM and the TGI [28] was > 100 µM. For the same molecule, the TGI [29] was > 100 µM, the TGI [58] was > 100 µM and the TGI [30] was > 100 µM. The TGI [31] was > 100 µM, the TGI [32] was > 100 µM and the TGI [33] was > 100 µM. For the same molecule, the TGI [34] was > 100 µM, the TGI [36] was > 100 µM and the TGI [37] was > 100 µM. The TGI [38] was > 100 µM, the TGI [39] was > 100 µM and the TGI [40] was > 100 µM. The TGI [41] was > 100 µM, the TGI [43] was > 100 µM and the TGI [44] was > 100 µM. For the same molecule, the TGI [45] was > 100 µM, the TGI [46] was > 100 µM and the TGI [47] was > 100 µM. The TGI [59] was > 100 µM, the TGI [49] was > 100 µM and the TGI [50] was > 100 µM. For the same molecule, the TGI [51] was > 100 µM, the TGI [52] was > 100 µM and the TGI [53] was > 100 µM. For the same molecule, the TGI [55] was > 100 µM and the TGI [56] was > 100 µM.
With COc1ccc(Oc2cccc(C3C4C(=O)N(c5ccc(C)c(Cl)c5)C(=O)C4ON3C(C(N)=O)c3ccccc3)c2)cc1 (centres undefined) the TGI [1] was 26.2 µM, the TGI [2] was 33 µM and the TGI [3] was > 50 µM. The TGI [4] was 19.8 µM, the TGI [5] was 32.6 µM and the TGI [6] was > 50 µM. For the same molecule, the TGI [7] was 26.6 µM, the TGI [8] was 23.6 µM and the TGI [9] was > 50 µM. The TGI [10] was 43.4 µM, the TGI [11] was 20.2 µM and the TGI [12] was > 50 µM. For the same molecule, the TGI [13] was > 50 µM, the TGI [14] was > 50 µM and the TGI [15] was 45.2 µM. The TGI [16] was > 50 µM, the TGI [18] was > 50 µM and the TGI [19] was 32.2 µM. The TGI [20] was > 50 µM, the TGI [21] was > 50 µM and the TGI [22] was 30.1 µM. The TGI [23] was > 50 µM, the TGI [24] was 38.3 µM and the TGI [25] was > 50 µM. The TGI [26] was > 50 µM, the TGI [27] was 42.6 µM and the TGI [28] was 44.5 µM. The TGI [29] was 47.9 µM, the TGI [58] was > 50 µM and the TGI [30] was 29.3 µM. The TGI [31] was > 50 µM, the TGI [32] was > 50 µM and the TGI [33] was 29.3 µM. For the same molecule, the TGI [34] was > 50 µM, the TGI [35] was > 50 µM and the TGI [36] was > 50 µM. For the same molecule, the TGI [37] was 35.6 µM, the TGI [39] was > 50 µM and the TGI [40] was > 50 µM. For the same molecule, the TGI [41] was > 50 µM, the TGI [42] was > 50 µM and the TGI [43] was 25.9 µM. For the same molecule, the TGI [44] was > 50 µM, the TGI [45] was > 50 µM and the TGI [46] was > 50 µM. The TGI [47] was 44.8 µM, the TGI [48] was > 50 µM and the TGI [59] was > 50 µM. The TGI [49] was > 50 µM, the TGI [50] was > 50 µM and the TGI [52] was 34.9 µM. For the same molecule, the TGI [53] was 21.8 µM, the TGI [54] was > 50 µM and the TGI [55] was > 50 µM. The TGI [56] was > 50 µM.
